Data reported in patent publication US20100298141A1, “SUBSTITUTED PYRIDINE N-OXIDE HERBICIDES” (E. I. DU PONT DE NEMOURS AND COMPANY, priority 2007, published 2010).

How the values were obtained:
Experiment in all cases: Test F preemergence test
Details in all cases: scale 0 to 100
large crabgrass = assay type: in vivo, Digitaria sanguinalis
In short: (§1)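 Compounds in a non-phytotoxic solvent formulation with surfactant were applied before emergence after sowing, or, for sugarcane, also postemergence. Evaluation was visual, against controls, after 14 to 21 greenhouse days.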

green foxtail = assay type: in vivo, Setaria viridis
In short: as §1

field bindweed = assay type: in vivo, Convolvulus arvensis
In short: as §1

pitted morningglory = assay type: in vivo, Ipomoea lacunosa
Text: (§2) Seeds of plant species selected from bermudagrass (Cynodon dactylon), Surinam grass (Brachiaria decumbens), large crabgrass (Digitaria sanguinalis), green foxtail (Setaria viridis), goosegrass (Eleusine indica), johnsongrass (Sorghum halepense), kochia (Kochia scoparia), pitted morningglory (Ipomoea lacunosa), purple nutsedge (Cyperus rotundus), common ragweed (Ambrosia elation), mustard (Brassica nigra), guineagrass (Panicum maximum), […] (Paspalum dilatatum), barnyardgrass (Echinochloa crus-galli), southern sandbur (Cenchrus echinatus), common sowthistle (Sonchus oleraceous), prickly […] spinosa), Italian ryegrass (Lolium multiflorum), common purslane (Portulaca oleracea), broadleaf signalgrass (Brachiaria platyphylla), common groundsel (Senecio vulgaris), common chickweed (Stellaria media), Virginia dayflower (Commelina virginica), annual bluegrass (Poa annua), naked crabgrass (Digitaria nuda), […] cochinchinensis), quackgrass (Elytrigia repens), Canada horseweed (Conyza canadensis), field bindweed (Convolvulus arvensis), […] (Bidens bipinnata), common mallow (Malva sylvestris), Russian thistle (Salsola kali), and sugarcane (Saccharum officinarum) were planted and treated preemergence with test chemicals formulated in a non-phytotoxic solvent mixture which included a surfactant. At a different time, sugarcane was treated with postemergence applications of some of the test chemicals formulated in the same manner. Plants were approximately 3- to 4-leaf stage for the postemergence treatments. Treated plants and controls were maintained in a greenhouse for 14 to 21 days, after which time all species were compared to controls and visually evaluated. […] A dash (-) response means no test result.

common mallow = assay type: in vivo, Malva sylvestris
Text: as §2

bermudagrass = assay type: in vivo, Cynodon dactylon
In short: as §1

barnyardgrass = assay type: in vivo, Echinochloa crus-galli
In short: as §1

common chickweed = assay type: in vivo, Stellaria media
Text: as §2

common purslane = assay type: in vivo, Portulaca oleracea
In short: as §1

Surinam grass = assay type: in vivo, Brachiaria decumbens
In short: as §1

naked crabgrass = assay type: in vivo, Digitaria nuda
In short: as §1

prickly sida = assay type: in vivo, Sida spinosa
In short: as §1

southern sandbur = assay type: in vivo, Cenchrus echinatus
In short: as §1

Italian ryegrass = assay type: in vivo, Lolium multiflorum
In short: as §1

annual bluegrass = assay type: in vivo, Poa annua
In short: as §1

quackgrass = assay type: in vivo, Elytrigia repens
In short: as §1

guineagrass = assay type: in vivo, Panicum maximum
In short: as §1

mustard = assay type: in vivo, Brassica nigra
In short: as §1

For Cc1cc[n+]([O-])c(S(=O)(=O)Cc2c(C(F)(F)F)nn(C)c2OC(F)F)c1 [Compound 2], the “Plant response rating, Crabgrass, Large” value (large crabgrass; 8 g ai/ha, preemergence) was 0, the “Crabgrass, Large plant response rating” value (large crabgrass; 62 g ai/ha, Preemergence) was 90 and the “Plant response rating, Crabgrass, Large” value (large crabgrass; Preemergence, 16 g ai/ha) was 0. The “Plant response rating, Crabgrass, Large” value (large crabgrass; Preemergence, 31 g ai/ha) was 50, the “Plant response rating, Foxtail, Green” value (green foxtail; 8 g ai/ha, preemergence) was 0 and the “Foxtail, Green plant response rating” value (green foxtail; 62 g ai/ha, Preemergence) was 80. For the same compound, the “Plant response rating, Foxtail, Green” value (green foxtail; Preemergence, 16 g ai/ha) was 20, the “Plant response rating, Foxtail, Green” value (green foxtail; Preemergence, 31 g ai/ha) was 65 and the “Plant response rating, Field Bindweed” value (field bindweed; 8 g ai/ha, preemergence) was 0. For the same compound, the “Field Bindweed plant response rating” value (field bindweed; 62 g ai/ha, Preemergence) was 0, the “Plant response rating, Field Bindweed” value (field bindweed; Preemergence, 16 g ai/ha) was 0 and the “Plant response rating, Field Bindweed” value (field bindweed; Preemergence, 31 g ai/ha) was 0. The “Plant response rating, Morningglory” value (pitted morningglory; 8 g ai/ha, preemergence) was 0, the “Morningglory plant response rating” value (pitted morningglory; 62 g ai/ha, Preemergence) was 60 and the “Plant response rating, Morningglory” value (pitted morningglory; Preemergence, 16 g ai/ha) was 0. The “Plant response rating, Morningglory” value (pitted morningglory; Preemergence, 31 g ai/ha) was 15, the “Plant response rating, Mallow” value (common mallow; 8 g ai/ha, preemergence) was 0 and the “Mallow plant response rating” value (common mallow; 62 g ai/ha, Preemergence) was 35. The “Plant response rating, Mallow” value (common mallow; Preemergence, 16 g ai/ha) was 0, the “Plant response rating, Mallow” value (common mallow; Preemergence, 31 g ai/ha) was 0 and the “Plant response rating, Bermudagrass” value (bermudagrass; 8 g ai/ha, preemergence) was 0. The “Bermudagrass plant response rating” value (bermudagrass; 62 g ai/ha, Preemergence) was 90, the “Plant response rating, Bermudagrass” value (bermudagrass; Preemergence, 16 g ai/ha) was 25 and the “Plant response rating, Bermudagrass” value (bermudagrass; Preemergence, 31 g ai/ha) was 90. For the same compound, the “Plant response rating, Barnyardgrass” value (barnyardgrass; 8 g ai/ha, preemergence) was 0, the “Barnyardgrass plant response rating” value (barnyardgrass; 62 g ai/ha, Preemergence) was 100 and the “Plant response rating, Barnyardgrass” value (barnyardgrass; Preemergence, 16 g ai/ha) was 10. The “Plant response rating, Barnyardgrass” value (barnyardgrass; Preemergence, 31 g ai/ha) was 80, the “Plant response rating, Chickweed” value (common chickweed; 8 g ai/ha, preemergence) was 10 and the “Chickweed plant response rating” value (common chickweed; 62 g ai/ha, Preemergence) was 100. For the same compound, the “Plant response rating, Chickweed” value (common chickweed; Preemergence, 16 g ai/ha) was 80, the “Plant response rating, Chickweed” value (common chickweed; Preemergence, 31 g ai/ha) was 95 and the “Plant response rating, Purslane” value (common purslane; 8 g ai/ha, preemergence) was 0. For the same compound, the “Purslane plant response rating” value (common purslane; 62 g ai/ha, Preemergence) was 50, the “Plant response rating, Purslane” value (common purslane; Preemergence, 16 g ai/ha) was 0 and the “Plant response rating, Purslane” value (common purslane; Preemergence, 31 g ai/ha) was 40. For the same compound, the “Plant response rating, Surinam Grass” value (Surinam grass; 8 g ai/ha, preemergence) was 0, the “Plant response rating, Surinam Grass” value (Surinam grass; 16 g ai/ha, preemergence) was 0 and the “Surinam Grass plant response rating” value (Surinam grass; 62 g ai/ha, Preemergence) was 100. For the same compound, the “Plant response rating, Surinam Grass” value (Surinam grass; Preemergence, 31 g ai/ha) was 60, the “Plant response rating, Crabgrass, Naked” value (naked crabgrass; 8 g ai/ha, preemergence) was 0 and the “Crabgrass, Naked plant response rating” value (naked crabgrass; 62 g ai/ha, Preemergence) was 80. The “Plant response rating, Crabgrass, Naked” value (naked crabgrass; Preemergence, 16 g ai/ha) was 35, the “Plant response rating, Crabgrass, Naked” value (naked crabgrass; Preemergence, 31 g ai/ha) was 65 and the “Plant response rating, Prickly Sida” value (prickly sida; 8 g ai/ha, preemergence) was 0. The “Prickly Sida plant response rating” value (prickly sida; 62 g ai/ha, Preemergence) was 80, the “Plant response rating, Prickly Sida” value (prickly sida; Preemergence, 16 g ai/ha) was 0 and the “Plant response rating, Prickly Sida” value (prickly sida; Preemergence, 31 g ai/ha) was 40. The “Plant response rating, Sandbur” value (southern sandbur; 8 g ai/ha, preemergence) was 0, the “Plant response rating, Sandbur” value (southern sandbur; 16 g ai/ha, preemergence) was 0 and the “Sandbur plant response rating” value (southern sandbur; 62 g ai/ha, Preemergence) was 100. For the same compound, the “Plant response rating, Sandbur” value (southern sandbur; Preemergence, 31 g ai/ha) was 30, the “Plant response rating, Ryegrass, Italian” value (Italian ryegrass; 8 g ai/ha, preemergence) was 0 and the “Ryegrass, Italian plant response rating” value (Italian ryegrass; 62 g ai/ha, Preemergence) was 35. The “Plant response rating, Ryegrass, Italian” value (Italian ryegrass; Preemergence, 16 g ai/ha) was 0, the “Plant response rating, Ryegrass, Italian” value (Italian ryegrass; Preemergence, 31 g ai/ha) was 20 and the “Plant response rating, Bluegrass” value (annual bluegrass; 8 g ai/ha, preemergence) was 0. The “Bluegrass plant response rating” value (annual bluegrass; 62 g ai/ha, Preemergence) was 25, the “Plant response rating, Bluegrass” value (annual bluegrass; Preemergence, 16 g ai/ha) was 0 and the “Plant response rating, Bluegrass” value (annual bluegrass; Preemergence, 31 g ai/ha) was 15. For the same compound, the “Plant response rating, Quackgrass” value (quackgrass; 8 g ai/ha, preemergence) was 0, the “Quackgrass plant response rating” value (quackgrass; 62 g ai/ha, Preemergence) was 60 and the “Plant response rating, Quackgrass” value (quackgrass; Preemergence, 16 g ai/ha) was 0. The “Plant response rating, Quackgrass” value (quackgrass; Preemergence, 31 g ai/ha) was 20, the “Plant response rating, Guineagrass” value (guineagrass; 8 g ai/ha, preemergence) was 0 and the “Guineagrass plant response rating” value (guineagrass; 62 g ai/ha, Preemergence) was 100. For the same compound, the “Plant response rating, Guineagrass” value (guineagrass; Preemergence, 16 g ai/ha) was 65, the “Plant response rating, Guineagrass” value (guineagrass; Preemergence, 31 g ai/ha) was 90 and the “Plant response rating, Black Mustard” value (mustard; 8 g ai/ha, preemergence) was 0. The “Black Mustard plant response rating” value (mustard; 62 g ai/ha, Preemergence) was 80, the “Plant response rating, Black Mustard” value (mustard; Preemergence, 16 g ai/ha) was 25 and the “Plant response rating, Black Mustard” value (mustard; Preemergence, 31 g ai/ha) was 80.
